From PubChem BioAssay (NCI)
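Five compound concentrations were applied to cells in 96-well plates for 48 hours; endpoints were derived by simple linear interpolation of the resulting dose-response curve. TGI: total growth inhibition.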

What was measured:
Experiment in all cases: NCI tumour cell line growth inhibition, 48 h
786-0 renal = test system: 786-0 renal
A498 renal = test system: A498 renal
A549 NSCLC = test system: A549 NSCLC
ACHN renal = test system: ACHN renal
BT-549 breast = test system: BT-549 breast
CAKI-1 renal = test system: CAKI-1 renal
CCRF-CEM leukemia = test system: CCRF-CEM leukemia
COLO 205 colon = test system: COLO 205 colon
DU-145 prostate = test system: DU-145 prostate
EKVX NSCLC = test system: EKVX NSCLC
HCC-2998 colon = test system: HCC-2998 colon
HCT-116 colon = test system: HCT-116 colon
HCT-15 colon = test system: HCT-15 colon
HL-60(TB) leukemia = test system: HL-60(TB) leukemia
HOP-62 NSCLC = test system: HOP-62 NSCLC
HOP-92 NSCLC = test system: HOP-92 NSCLC
HS 578T breast = test system: HS 578T breast
HT29 colon = test system: HT29 colon
IGROV1 ovarian = test system: IGROV1 ovarian
K-562 leukemia = test system: K-562 leukemia
KM12 colon = test system: KM12 colon
LOX IMVI melanoma = test system: LOX IMVI melanoma
M14 melanoma = test system: M14 melanoma
MALME-3M melanoma = test system: MALME-3M melanoma
MCF7 breast = test system: MCF7 breast
MDA-MB-231 breast = test system: MDA-MB-231 breast
MDA-MB-435 = test system: MDA-MB-435
MDA-N = test system: MDA-N
MOLT-4 leukemia = test system: MOLT-4 leukemia
NCI-H226 lung = test system: NCI-H226 lung
NCI-H23 lung = test system: NCI-H23 lung
NCI-H522 lung = test system: NCI-H522 lung
NCI/ADR-RES ovarian = test system: NCI/ADR-RES ovarian
OVCAR-3 ovarian = test system: OVCAR-3 ovarian
OVCAR-4 ovarian = test system: OVCAR-4 ovarian
OVCAR-5 ovarian = test system: OVCAR-5 ovarian
OVCAR-8 ovarian = test system: OVCAR-8 ovarian
PC-3 prostate = test system: PC-3 prostate
RPMI-8226 leukemia = test system: RPMI-8226 leukemia
RXF 393 renal = test system: RXF 393 renal
SF-268 CNS = test system: SF-268 CNS
SF-295 CNS = test system: SF-295 CNS
SF-539 CNS = test system: SF-539 CNS
SK-MEL-2 melanoma = test system: SK-MEL-2 melanoma
SK-MEL-28 melanoma = test system: SK-MEL-28 melanoma
SK-MEL-5 melanoma = test system: SK-MEL-5 melanoma
SK-OV-3 ovarian = test system: SK-OV-3 ovarian
SN12C renal = test system: SN12C renal
SNB-19 CNS = test system: SNB-19 CNS
SNB-75 CNS = test system: SNB-75 CNS
SR leukemia = test system: SR leukemia
SW-620 colon = test system: SW-620 colon
T-47D breast = test system: T-47D breast
TK-10 renal = test system: TK-10 renal
U251 CNS = test system: U251 CNS
UACC-257 melanoma = test system: UACC-257 melanoma
UACC-62 melanoma = test system: UACC-62 melanoma
UO-31 renal = test system: UO-31 renal

Measured: TGI

CC/C(N)=N\NC(=O)OC(C)(C)C
> 100 µM: all assays above
